From patent publication US10653658B2, “Biofilm inhibiting compositions enhancing weight gain in livestock” (Akeso Biomedical, Inc., priority 2015, dated 2020)

How the values were obtained:
Format in all cases: in vivo
Campylobacter [1] = assay: Campylobacter carriage in chickens, cfu/g of droppings and caeca at day 42 (Example 1)
Method: A study was performed to evaluate growth promotion and reduction of Campylobacter carriage using FeQ and FeTyr in Ross 308 male broilers with 7 treatment groups. Each treatment group comprised four replicates of 10 birds per pen (40 birds/treatment group and 4 pens of 10 birds/treatment group), with 2 control groups and 5 test groups. All the test groups and one of the control groups were exposed at day 20 of the trial to dirty litter, which tested positive for Campylobacter. This method was used to provide a more natural method to Campylobacter challenge the birds. Thus there was a positive control where one treatment group was challenged with Campylobacter and one negative control group where the birds were not challenged, and five treatment groups that were all challenged with Campylobacter. The total number of birds used in the 7 treatment groups was 280. Treatment group 1 was a negative control where birds just received the commercial feed, and were not challenged with dirty litter containing Campylobacter. Treatment group 2 was the positive control where the birds received the commercial feed, and were challenged with dirty litter containing Campylobacter at day 20. Treatment group 3 received 0.22 g/L of FeQ in their drinking water and 0.22 g/Kg FeQ in their feed during the entire trial, and was challenged with dirty litter containing Campylobacter at day 20. Treatment group 5 received 0.22 g/L of FeQ in their drinking water during the entire trial, and was challenged with dirty litter containing Campylobacter at day 20. Treatment group 6 received 0.22 g/kg FeQ in their feed during the entire trial, and was challenged with dirty litter containing Campylobacter at day 20. Treatment group 7 received 0.022 g/L FeQ in their drinking water during the entire trial, and was challenged with dirty litter containing Campylobacter at day 20. Treatment group 8 received 0.02 g/L FeTyr in their drinking water during the entire trial, and was challenged with dirty litter containing Campylobacter at day 20. The FeTyr was pre-dissolved in DMSO, and diluted to provide a solution of 0.02 g/L of FeTyr in water. (An additional treatment group 4 was terminated due to solubility issues.)
Prior to challenging the chickens with dirty litter containing Campylobacter at day 20, each pen was tested for Campylobacter using cloacal swabs. All pens tested negative for Campylobacter prior to the challenge. At day 20, litter, which was naturally Campylobacter-contaminated, was tested to confirm the presence of Campylobacter, and then added (approximately 2 kg/pen) to the litter in all pens except in pens for treatment group 1 (the negative control). At day 28, the pen litter was sampled to confirm the presence or absence of Campylobacter. At day 41 and 42, caecal samples were taken from 3 birds per pen (12 birds per treatment group) and tested for Campylobacter enumeration. At day 42, digesta, fecal samples, and caecal content was taken from all birds, and pooled per pen. Two birds per pen were also taken from treatment groups 1-3, euthanized, and blood samples taken. Samples were analyzed for blood chemistry, including analysis for alkaline phosphatase, aspartate amino transferase, alanine amino transferase, gamma-glutamyl transferase, lactate dehydrogenase, total protein, albumin, globulin, amylase and glucose.

Campylobacter jejuni = assay: Campylobacter carriage in chickens after oral challenge, caecal contents at day 35 (Example 9); settings: 340 μM in the drinking water; oral challenge at day 14
Method: A study was performed to evaluate reduction of Campylobacter carriage in chickens using ferric lactate in one treatment group, and FeQ (Q-PLEX) in a second treatment group. A third treatment group served as a positive control. The ferric lactate and FeQ were administered to the treatment groups at a concentration of 340 μM in the drinking water. Each treatment group comprised 12 birds per pen. All three treatment groups were orally challenged with 10^5 cfu of Campylobacter jejuni at day 14 of the trial. At day 35 all birds were euthanized, and quantitative bacteriology performed on caecal contents.

Campylobacter [2] = assay: Campylobacter cfu/g of caeca at day 42 (Example 10); settings: in feed
Method: A study was performed to evaluate growth promotion and reduction of Campylobacter carriage using FeTyr in Ross 308 male broilers with 7 treatment groups. Each treatment group comprised eight replicates of 10 birds per pen (80 birds/treatment group), with 2 control groups and […]. All the test groups and both of the control groups were exposed at day 20 of the trial to dirty litter, which tested positive for Campylobacter. This method was used to provide a more natural method to Campylobacter challenge the birds. Thus there were two positive controls where each treatment group was challenged with Campylobacter, and five treatment groups that were all challenged with Campylobacter. The total number of birds used in the 7 treatment groups was 560.
At day 20, litter, which was naturally Campylobacter-contaminated, was tested to confirm the presence of Campylobacter, and then added (approximately 2 kg/pen) to the litter in all pens. At day 42, caecal samples were taken and tested for Campylobacter, E. coli and Salmonella enumeration.

In the case of `O=C([O-])C1(O)CC(O)C(O)C(O)C1.O=C([O-])C1(O)CC(O)C(O)C(O)C1.O=C([O-])C1(O)CC(O)C(O)C(O)C1.[Fe+3]` (stereo not drawn) [FeQ, Ferric Quinate], the “Campylobacter cfu/g of bird droppings at day 42 (FIG. 3), low concentration” value (Campylobacter [1]; 0.022 g/L FeQ in water, treatment group 7, considered likely experimental error) is reported as “less of an effect than the other treatment groups”, the “Campylobacter cfu/g of caeca samples at day 42 (FIG. 4), low concentration” value (Campylobacter [1]; treatment group 7: 0.022 g/L FeQ in water) is reported as “highly beneficial effect” and the “Campylobacter cfu/g of caeca samples at day 42 compared with positive control (FIG. 4)” value (Campylobacter [1]; treatment groups 3 and 5-8) is reported as “positive effect on reducing Campylobacter infection”. The “Campylobacter cfu/g of bird droppings at day 42 compared with positive control (FIG. 3)” value (Campylobacter [1]; treatment groups 3 and 6-8) was “positive effect on reducing Campylobacter infection”, the “levels of Campylobacter in caeca at day 35 compared with positive control (FIG. 11)” value (Campylobacter jejuni) was “lower levels of Campylobacter in their caeca” and the “Campylobacter cfu/g of caeca at day 42 (FIG. 14)” value (Campylobacter [2]) was “positive effect on reducing Campylobacter infection”.
